Results reported in patent publication US20240199654A1, “CTLA-4 SMALL MOLECULE DEGRADATION AGENT AND APPLICATION THEREOF” (SUZHOU GUOKUANG PHARMTECH. CO., LTD., priority 2021, published 2024).

Key:
[1] = biological target: T1, LRBA and CTLA-4 reporting system (Homo sapiens, UniProt P16410+P50851); assay: LRBA/CTLA-4 protein-protein interaction reporting system, dual luciferase assay in HEK293 cells; assay type: cell-based; details: HEK293 cells co-transfected with LRBA and CTLA-4 reporting system, 24 h after dosing; read-out: In vitro activity (IC50: concentration of compounds that inhibit 50% of reporting system activity)
T1 construct: expressed in transfected cells; host or cells: HEK293
T1 sequence (P16410 36-223): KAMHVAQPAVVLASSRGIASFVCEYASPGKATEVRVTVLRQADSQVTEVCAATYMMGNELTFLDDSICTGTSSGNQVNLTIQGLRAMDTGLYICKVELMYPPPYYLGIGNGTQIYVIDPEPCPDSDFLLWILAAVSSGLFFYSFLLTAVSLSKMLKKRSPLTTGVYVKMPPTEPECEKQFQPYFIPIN
T1 sequence (P50851 whole entry): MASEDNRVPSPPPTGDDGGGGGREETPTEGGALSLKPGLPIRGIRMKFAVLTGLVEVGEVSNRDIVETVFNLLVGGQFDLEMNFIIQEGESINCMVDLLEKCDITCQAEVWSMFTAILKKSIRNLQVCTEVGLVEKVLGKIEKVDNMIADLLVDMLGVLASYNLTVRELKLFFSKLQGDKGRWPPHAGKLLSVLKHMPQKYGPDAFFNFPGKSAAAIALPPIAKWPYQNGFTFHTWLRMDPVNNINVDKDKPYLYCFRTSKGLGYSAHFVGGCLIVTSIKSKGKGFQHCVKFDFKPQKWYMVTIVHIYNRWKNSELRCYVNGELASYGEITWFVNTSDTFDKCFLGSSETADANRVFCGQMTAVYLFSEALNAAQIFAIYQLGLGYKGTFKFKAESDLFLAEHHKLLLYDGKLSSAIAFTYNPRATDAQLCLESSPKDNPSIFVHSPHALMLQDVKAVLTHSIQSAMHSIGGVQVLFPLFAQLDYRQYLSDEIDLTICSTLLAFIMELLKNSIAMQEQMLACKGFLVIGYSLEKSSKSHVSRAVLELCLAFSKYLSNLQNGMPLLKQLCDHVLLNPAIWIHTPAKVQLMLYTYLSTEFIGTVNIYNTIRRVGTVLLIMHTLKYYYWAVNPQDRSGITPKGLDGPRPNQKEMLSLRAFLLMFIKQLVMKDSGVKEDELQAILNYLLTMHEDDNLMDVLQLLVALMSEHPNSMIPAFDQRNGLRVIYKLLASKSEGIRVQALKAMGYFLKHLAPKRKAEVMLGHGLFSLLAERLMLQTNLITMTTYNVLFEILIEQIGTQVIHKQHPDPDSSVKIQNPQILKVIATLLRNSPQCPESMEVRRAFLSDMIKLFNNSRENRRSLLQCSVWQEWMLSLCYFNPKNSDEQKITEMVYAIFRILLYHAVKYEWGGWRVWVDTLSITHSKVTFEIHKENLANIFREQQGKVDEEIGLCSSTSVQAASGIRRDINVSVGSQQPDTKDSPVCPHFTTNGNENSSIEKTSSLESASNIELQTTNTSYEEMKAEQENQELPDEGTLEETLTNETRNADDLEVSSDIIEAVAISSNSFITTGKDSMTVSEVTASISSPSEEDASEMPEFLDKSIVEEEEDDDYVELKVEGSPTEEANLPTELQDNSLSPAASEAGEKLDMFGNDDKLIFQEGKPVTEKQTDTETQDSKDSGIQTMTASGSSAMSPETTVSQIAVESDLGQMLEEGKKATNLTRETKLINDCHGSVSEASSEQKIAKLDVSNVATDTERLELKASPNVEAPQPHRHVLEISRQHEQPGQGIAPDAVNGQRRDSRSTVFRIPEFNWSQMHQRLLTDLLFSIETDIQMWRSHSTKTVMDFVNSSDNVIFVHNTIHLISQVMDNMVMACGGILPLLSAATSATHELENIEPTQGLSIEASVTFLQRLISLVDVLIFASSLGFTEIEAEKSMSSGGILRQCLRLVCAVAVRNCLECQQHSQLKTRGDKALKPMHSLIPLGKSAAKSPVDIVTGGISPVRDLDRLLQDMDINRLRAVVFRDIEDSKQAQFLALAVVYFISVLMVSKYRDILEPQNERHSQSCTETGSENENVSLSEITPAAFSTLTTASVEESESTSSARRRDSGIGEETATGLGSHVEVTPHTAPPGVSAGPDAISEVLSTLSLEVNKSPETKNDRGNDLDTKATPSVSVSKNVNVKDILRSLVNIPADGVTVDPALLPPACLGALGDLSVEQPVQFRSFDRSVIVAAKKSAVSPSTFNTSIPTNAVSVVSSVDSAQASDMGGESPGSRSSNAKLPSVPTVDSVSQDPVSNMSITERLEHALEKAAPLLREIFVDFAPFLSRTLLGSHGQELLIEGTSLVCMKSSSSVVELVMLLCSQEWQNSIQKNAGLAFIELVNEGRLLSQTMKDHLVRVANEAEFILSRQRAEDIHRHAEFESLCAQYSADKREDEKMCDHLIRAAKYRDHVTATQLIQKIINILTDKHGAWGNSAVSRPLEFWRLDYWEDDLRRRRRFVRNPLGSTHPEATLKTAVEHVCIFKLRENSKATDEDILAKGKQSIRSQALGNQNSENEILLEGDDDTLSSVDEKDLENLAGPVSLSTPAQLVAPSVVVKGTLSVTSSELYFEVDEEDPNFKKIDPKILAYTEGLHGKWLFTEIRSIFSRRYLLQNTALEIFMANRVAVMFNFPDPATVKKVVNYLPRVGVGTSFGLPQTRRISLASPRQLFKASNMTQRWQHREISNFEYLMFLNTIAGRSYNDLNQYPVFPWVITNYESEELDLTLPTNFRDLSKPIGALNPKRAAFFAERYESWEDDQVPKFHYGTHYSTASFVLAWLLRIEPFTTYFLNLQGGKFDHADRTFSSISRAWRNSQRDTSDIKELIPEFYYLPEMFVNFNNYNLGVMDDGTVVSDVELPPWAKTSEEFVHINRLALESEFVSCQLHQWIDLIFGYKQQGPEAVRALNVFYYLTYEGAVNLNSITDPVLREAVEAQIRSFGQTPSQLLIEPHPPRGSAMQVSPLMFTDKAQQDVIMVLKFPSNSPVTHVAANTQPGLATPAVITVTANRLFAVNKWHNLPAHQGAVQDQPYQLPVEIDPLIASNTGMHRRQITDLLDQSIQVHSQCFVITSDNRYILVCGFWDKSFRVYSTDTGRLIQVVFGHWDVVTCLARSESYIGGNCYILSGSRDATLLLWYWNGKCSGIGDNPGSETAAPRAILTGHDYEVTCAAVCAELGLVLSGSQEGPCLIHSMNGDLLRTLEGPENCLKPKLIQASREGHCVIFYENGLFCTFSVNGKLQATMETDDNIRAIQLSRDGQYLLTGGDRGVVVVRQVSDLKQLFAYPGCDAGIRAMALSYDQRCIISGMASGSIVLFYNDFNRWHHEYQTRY
Description: HEK293 cells were spread on 96-well plates, and LRBA and CTLA-4 reporting system were co-transfected into HEK293 cells after 24 h. After 24 h, different compounds with final concentrations of 0.01, 0.033, 0.10, 0.33, 1.00, 3.33, 10.00, 33.33, and 100.00 μM were added. 24 h after dosing, the cell culture medium was removed and the cells were washed with cold PBS. Then the activity of the compounds were detected by the dual luciferase assay kit, and IC50 values were calculated according to the results.
For the compounds with strong activity (IC50<200 nM), the degradation of CTLA-4 protein was further detected by Western Blot. • IC50: Concentration of compounds that inhibit 50% of reporting system activity The size of IC50 is divided into four levels: • ++++, IC50<200 nM; +++, IC50 is 200-1000 nM; ++, IC50 is 1000-2000 nM; +, IC50>2000 nM.

[2] = system: Mouse colon cancer MC-38 cells; assay: In vivo activity research of xenograft model (MC-38); design: species or system C57BL/6 mice; details: for TGI(%): 30 mg/kg, oral, once a day, MC-38 subcutaneous in C57BL/6 mice
Description: 1. Cell culture: Mouse colon cancer MC-38 cells were adherently cultured in vitro. The culture conditions were RPMI-1640 medium with 10% fetal bovine serum, 100 U/mL penicillin and 100 μg/mL streptomycin, 37° C. 5% CO2 incubator culture. Passaged with routine processing two to three times a week. When the cell saturation was 80%-90% and the number reached the requirement, the cell count was collected, and the cell concentration was adjusted for experimental inoculation. 2. Animals: C57BL/6 mice, female, 7 weeks old, 18-20 grams in weight, 8 mice per group. 3. Tumor inoculation: 0.02 mL (0.2×10^6) MC-38 cells were subcutaneously inoculated into the right back of each mouse. On the 7th day after inoculation, the tumor volumes of the animals were measured, and then the groups were randomized according to tumor volume and administration was started. 4. Experimental indicators: The experimental indicators were used to examine whether the tumor growth is inhibited, delayed or cured. Tumor diameters were measured with vernier calipers two to three times a week. The calculation formula of tumor volume is: V=0.5a×b^2, wherein a and b respectively represent the long and short diameters of tumors. The anti-tumor effect of the compounds was expressed by TGI (%). TGI (%), reflecting tumor growth inhibition rate. Calculation of TGI(%): TGI(%)=[(1-(average tumor volume at the end of administration of a treatment group−average tumor volume at the beginning of administration of the treatment group))/(average tumor volume at the end of treatment of the solvent control group−average tumor volume at the beginning of treatment of the solvent control group)]×100%. 5. Animal experiment grouping, administration program and experimental results: […]

[3] = system: Colorectal cancer (MSI-H/dMMR); details: clinical; cited from earlier work
Hepatocellular carcinoma = details: clinical; cited from earlier work
[4] = system: Non-small cell lung cancer; details: clinical; cited from earlier work

| Compound | IC50 [1] | TGI(%) [2] | also measured |
| --- | --- | --- | --- |
| c1ccc2ncc(-c3cc(N4CCNCC4)ncn3)cc2c1 [Compound 44, 3-(6-(piperazin-1-yl)pyrimidin-4-yl)quinoline] | < 200 nM | 85% |  |
| Nivolumab [O drug] |  |  | ORR [3]: single O drug group ORR = 36%; ORR (Hepatocellular carcinoma): single O drug group ORR = 15%; ORR [4]: single O drug group ORR = 14.5% |

Second part, led by results:

| IC50 [1] | Compound | TGI(%) [2] | also measured |
| --- | --- | --- | --- |
| < 200 nM | c1ccc2ncc(-c3ccnc(N4CCNCC4)n3)cc2c1 [Compound 18, 3-(2-(piperazin-1-yl)pyrimidin-4-yl)quinoline] | 90% | anti-tumor effect in tumor transplantation model in vivo ([2]; MC-38 model): excellent anti-tumor effects |
| 1000 to 2000 nM | Cn1ncc2c(-c3cnc4ccccc4c3)nc(N3CCNCC3)nc21 [Compound 52, 3-(1-methyl-6-(piperazin-1-yl)-1H-pyrazolo[3,4-d]pyrimidin-4-yl)quinoline] |  |  |
| < 200 nM | Cc1c(-c2cnc3ccccc3c2)ncnc1N1CCNCC1 [Compound 53, 3-(5-methyl-6-(piperazin-1-yl)pyrimidin-4-yl)quinoline] |  |  |
